Test results from patent US20080096811A1, “[…] VPAC2 RECEPTOR PEPTIDE AGONISTS” (Eli Lilly and Company, published 2008).
*1 amine or outer side, *2 acyl side, *3 side chain or, on linkers, in order; H or OH if unused. Where a SMILES comes first, the peptide text is derived from it. Side-chain parts run from the residue outwards. The star is where a group is joined. γGlu = O=C(O)[C@H](CCC(=O)[*:2])N[*:1]; Palmitoyl = CCCCCCCCCCCCCCCC(=O)*; Hexanoyl = CCCCCC(=O)*

Tests used:
human VPAC2 [1] = biological target: T1, human VPAC2 (Homo sapiens, UniProt P41587); assay: Filter binding assay, human VPAC2 membranes, 125I-labeled VIP tracer
T1 construct: expressed in transfected cells
T1 sequence (P41587 24-438): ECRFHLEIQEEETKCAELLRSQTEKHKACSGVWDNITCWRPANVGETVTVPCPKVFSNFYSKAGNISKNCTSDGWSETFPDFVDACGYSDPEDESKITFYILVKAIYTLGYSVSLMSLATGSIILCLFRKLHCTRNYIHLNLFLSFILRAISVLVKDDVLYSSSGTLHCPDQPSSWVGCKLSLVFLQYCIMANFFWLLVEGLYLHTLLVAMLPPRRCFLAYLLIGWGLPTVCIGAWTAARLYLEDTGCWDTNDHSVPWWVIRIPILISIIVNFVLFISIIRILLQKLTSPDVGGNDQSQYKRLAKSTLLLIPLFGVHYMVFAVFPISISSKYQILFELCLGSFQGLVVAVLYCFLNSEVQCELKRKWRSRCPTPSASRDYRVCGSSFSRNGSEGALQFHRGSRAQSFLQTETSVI

Normal Wistar rats = assay: Intravenous glucose tolerance test (IVGTT); assay type: in vivo; conditions: Wistar rat, insulin
Protocol: Intravenous glucose tolerance test (IVGTT): Normal Wistar rats are fasted overnight and are anesthetized prior to the experiment. A blood sampling catheter is inserted into the rats. The compound is given in the jugular vein. Blood samples are taken from the carotid artery. A blood sample is drawn immediately prior to the injection of glucose along with the compound. After the initial blood sample, glucose mixed with compound is injected intravenously (i.v.). A glucose challenge of 0.5 g/kg body weight is given, injecting a total of 1.5 mL vehicle with glucose and agonist per kg body weight. The peptide concentration vary to produce the desired dose in μg/kg. Blood samples are drawn at 2, 4, 6 and 10 minutes after giving glucose. The control group of animals receives the same vehicle along with glucose, but with no compound added. In some instances, a 30 minute post-glucose blood sample is drawn. Aprotinin is added to the blood sample (250 kIU/ml blood). The serum is then analyzed for glucose and insulin using standard methodologies.
The assay uses a formulated and calibrated peptide stock in PBS. Normally, this stock is a prediluted 100 μM stock. However, a more concentrated stock with approximately 1 mg agonist per mL is used. The specific concentration is always known. Variability in the maximal response is mostly due to variability in the vehicle dose.

human VPAC1 [2] = biological target: T2, human VPAC1 (Homo sapiens, UniProt P32241); assay: Filter binding assay, human VPAC1 membranes, 125I-labeled VIP tracer; design: expressed in transfected cells
T2 sequence (P32241 31-457): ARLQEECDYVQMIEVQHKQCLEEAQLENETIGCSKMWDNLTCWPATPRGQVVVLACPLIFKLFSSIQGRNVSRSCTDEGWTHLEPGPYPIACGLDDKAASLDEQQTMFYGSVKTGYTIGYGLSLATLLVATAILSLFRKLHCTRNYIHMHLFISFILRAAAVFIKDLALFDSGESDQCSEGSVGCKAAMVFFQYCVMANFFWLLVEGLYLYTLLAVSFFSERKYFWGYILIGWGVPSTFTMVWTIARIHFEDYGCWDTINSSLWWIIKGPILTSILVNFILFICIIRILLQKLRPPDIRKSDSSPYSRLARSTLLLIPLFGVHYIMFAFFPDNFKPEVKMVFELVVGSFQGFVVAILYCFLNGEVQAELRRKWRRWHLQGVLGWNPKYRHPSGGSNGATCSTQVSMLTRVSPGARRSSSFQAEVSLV

human VPAC2 [3] = biological target: T1, human VPAC2; assay: Alpha screen cAMP in vitro potency, human VPAC2; assay type: cell-based
human PAC1 [4] = biological target: T3, human PAC1 (Homo sapiens, UniProt P41586); assay: cell-based
Protocol: (§1) Also, the cells are washed twice. The cells are incubated in assay buffer plus IBMX for 15 minutes at room temperature. […] The stimuli are present for 30 minutes. Then, the assay buffer is gently removed. […] At day 3, the assay described above for the VPAC2 receptor cell line is performed.

human PAC1 [5] = biological target: T3, human PAC1; assay: biochemical
human VPAC2 [6] = biological target: T1, human VPAC2; assay: DiscoveRx cAMP in vitro potency, human VPAC2; assay type: cell-based
Protocol: as §1

human VPAC1 [7] = biological target: T2, human VPAC1; assay: DiscoveRx cAMP in vitro potency, human VPAC1; assay type: cell-based; design: expressed in transfected cells; host or cells: CHO-PO, transient transfection (Lipofectamine)
Protocol: as §1

rat VPAC2 receptor = rat VPAC2 receptor (Rattus norvegicus, UniProt P35000); assay: cell-based
rat VPAC2 receptor, sequence (P35000 23-437): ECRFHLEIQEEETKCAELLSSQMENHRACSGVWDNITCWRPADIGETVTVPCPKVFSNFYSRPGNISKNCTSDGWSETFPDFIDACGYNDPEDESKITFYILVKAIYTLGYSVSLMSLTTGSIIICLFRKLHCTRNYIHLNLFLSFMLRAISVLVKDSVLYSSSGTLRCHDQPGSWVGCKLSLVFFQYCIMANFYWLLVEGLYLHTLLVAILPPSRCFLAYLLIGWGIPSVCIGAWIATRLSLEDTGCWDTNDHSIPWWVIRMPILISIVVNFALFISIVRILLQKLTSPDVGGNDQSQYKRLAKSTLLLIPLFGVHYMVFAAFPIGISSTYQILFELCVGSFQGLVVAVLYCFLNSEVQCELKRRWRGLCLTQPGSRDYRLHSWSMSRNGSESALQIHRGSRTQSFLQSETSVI
Protocol: DiscoveRx: A CHO—S cell line stably expressing human VPAC2 receptor in a 96-well microtiter plate is seeded with 50,000 cells/well the day before the assay. The cells are allowed to attach for 24 hours in 200 μL culture medium. On the day of the experiment, the medium is removed. Also, the cells are washed twice. The cells are incubated in assay buffer plus IBMX for 15 minutes at room temperature. Afterwards, the stimuli are added and are dissolved in assay buffer. The stimuli are present for 30 minutes. Then, the assay buffer is gently removed. The cell lysis reagent of the DiscoveRx cAMP kit is added. Thereafter, the standard protocol for developing the cAMP signal as described by the manufacturer is used (DiscoveRx Inc., USA). EC50 values for cAMP generation are calculated from the raw signal or are based on absolute cAMP levels as determined by a standard curve performed on each plate.
CHO—PO cells are transiently transfected with rat VPAC1 or VPAC2 receptor DNA.

T3 sequence (P41586 21-468): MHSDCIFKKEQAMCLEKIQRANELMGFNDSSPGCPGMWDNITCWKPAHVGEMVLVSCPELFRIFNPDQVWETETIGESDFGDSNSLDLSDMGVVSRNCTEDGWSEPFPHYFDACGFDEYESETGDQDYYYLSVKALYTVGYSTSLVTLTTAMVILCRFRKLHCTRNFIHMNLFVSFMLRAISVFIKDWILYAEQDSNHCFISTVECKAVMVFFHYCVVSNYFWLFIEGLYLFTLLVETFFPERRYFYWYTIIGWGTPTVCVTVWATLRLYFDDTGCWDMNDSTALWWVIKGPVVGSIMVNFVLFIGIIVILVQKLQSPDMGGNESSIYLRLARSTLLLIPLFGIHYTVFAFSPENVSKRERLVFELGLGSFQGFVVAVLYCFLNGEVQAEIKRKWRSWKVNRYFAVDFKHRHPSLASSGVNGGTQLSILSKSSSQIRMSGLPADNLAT

Structure (SMILES)	IC50 (human VPAC2 [1]) [pM]	% increase AUC: Dose = 0.1 μg/kg (Normal Wistar rats; dose 0.1 μg/kg) [%]	% increase AUC: Dose = 0.5 μg/kg (Normal Wistar rats; dose 0.5 μg/kg) [%]	% increase AUC: Dose = 10 μg/kg (Normal Wistar rats; dose 10 μg/kg) [%]	IC50 (human VPAC1 [2]) [pM]	EC50 (human VPAC2 [3]) [pM]	EC50 (human PAC1 [4]) [pM]	IC50 (human PAC1 [5]) [pM]	EC50 (human VPAC2 [6]) [pM]	Rat Serum Stability (Estimated purity in % after 72 hours) (rat serum, 72 hours) [%]	EC50 (human VPAC1 [7]) [pM]	EC50 (rat VPAC2 receptor) [pM]	Rat Serum Stability (Estimated purity in % after 18 hours) (10 μM peptide in rat serum, 37° C. vs 4° C. with aprotinin, 18 hours, EC50,4C/EC50,37C) [%]
CCCCCC(=O)N[C@@H](Cc1c[nH]cn1)C(=O)N[C@@H](CO)C(=O)N[C@@H](CC(=O)O)C(=O)N[C@@H](C)C(=O)N[C@H](C(=O)N[C@@H](Cc1ccccc1)C(=O)N[C@H](C(=O)N[C@@H](CC(=O)O)C(=O)N[C@@H](CC(N)=O)C(=O)N[C@@H](Cc1ccc(O)cc1)C(=O)N[C@H](C(=O)N[C@@H](CCCNC(=N)N)C(=O)N[C@@H](CC(C)C)C(=O)N[C@@H](CCCNC(=N)N)C(=O)N[C@@H](CCCCN)C(=O)N[C@@H](CCC(N)=O)C(=O)N[C@H](C(=O)N[C@@H](C)C(=O)N[C@@H](C)C(=O)N[C@@H](CCCCN)C(=O)N[C@@H](CCCCN)C(=O)N[C@@H](Cc1ccc(O)cc1)C(=O)N[C@@H](CC(C)C)C(=O)N[C@@H](CCC(N)=O)C(=O)N[C@@H](CO)C(=O)N[C@H](C(=O)N[C@@H](CCCCN)C(=O)N[C@@H](CC(N)=O)C(=O)N[C@@H](CO)C(=O)N[C@@H](CCCNC(=N)N)C(=O)N[C@H](C(=O)N[C@@H](CO)C(=O)N1CCC[C@H]1C(=O)N1CCC[C@H]1C(=O)N1CCC[C@H]1C(N)=O)[C@@H](C)O)[C@@H](C)CC)C(C)C)[C@@H](C)O)[C@@H](C)O)C(C)C [Agonist P30] (Hexanoyl-HSDAVFTDNYTRLRKQVAAKKYLQSIKNSRTSPPP-NH2)	220	67	241	378	33800	80	27000	214000	90	1.0	6450		
CCCCCCCCCCCCCCCC(=O)N[C@@H](CCC(=O)NCCCC[C@H](NC(=O)[C@@H]1CCCN1C(=O)[C@@H]1CCCN1C(=O)[C@@H]1CCCN1C(=O)[C@H](CO)NC(=O)[C@@H](NC(=O)[C@H](CCCNC(=N)N)NC(=O)[C@H](CO)NC(=O)[C@H](CC(N)=O)NC(=O)[C@H](CCCCN)NC(=O)[C@@H](NC(=O)[C@H](CO)NC(=O)[C@H](CCC(N)=O)NC(=O)[C@H](CC(C)C)NC(=O)[C@H](Cc1ccc(O)cc1)NC(=O)[C@H](CCCCN)NC(=O)[C@H](CCCCN)NC(=O)[C@H](C)NC(=O)[C@H](C)NC(=O)[C@@H](NC(=O)[C@H](CCC(N)=O)NC(=O)[C@H](CCCCN)NC(=O)[C@H](CCCNC(=N)N)NC(=O)[C@H](CC(C)C)NC(=O)[C@H](CCCNC(=N)N)NC(=O)[C@@H](NC(=O)[C@H](Cc1ccc(O)cc1)NC(=O)[C@H](CC(N)=O)NC(=O)[C@H](CC(=O)O)NC(=O)[C@@H](NC(=O)[C@H](Cc1ccccc1)NC(=O)[C@@H](NC(=O)[C@H](C)NC(=O)[C@H](CC(=O)O)NC(=O)[C@H](CO)NC(=O)[C@H](Cc1c[nH]cn1)NC(=O)CCCCC)C(C)C)[C@@H](C)O)[C@@H](C)O)C(C)C)[C@@H](C)CC)[C@@H](C)O)C(N)=O)C(=O)O [Agonist P81] (Hexanoyl-HSDAVFTDNYTRLRKQVAAKKYLQSIKNSRTSPPPK([γGlu-Palmitoyl])-NH2)	800				228000	10			180			50	68.05
